What was measured:
[1] = target: DGKζ (Homo sapiens (Human), UniProt Q13574); assay: Biochemical DGK IC50 assay (ADP-Glo, lipid micelle substrate), DGKζ; conditions: full length DGKζ 0.5 nM, ATP 140 μM, DAG 80 μM
Method: (§1) Enzymatic reactions of DGKζ, DGKα and DGKδ were performed using ADP-Glo assay with lipid micelle substrate. […] Full length DGKα (D21-10BG, SignalChem) and full length DGKδ (D23-10G, SignalChem) were purchased. Lipid micelle was prepared by dissolving DAG (Sigma, 317505-10MG) and PS (Sigma, P7769-100MG) with chloroform which was furtherly removed by rotary evaporation. The resulted product was resuspended in buffer containing 25 mM HEPES pH 7.0, 0.5 mM EDTA and 160 mM Octyl P-D glucopyranoside by vigorous mixing and ultrasonic (IID, Scientz).
(§2) The inhibition activities testing for the compound disclosed herein were carried out at room temperature in assay buffer containing 50 mM HEPES, 10 mM MgCl2, 0.01% BSA, 0.1 mM Na3VO4, 0.005% Tween-20 and 0.01 mM CaCl2. Compounds in DMSO were dispensed into wells of a black 384 well plate (Corning 4514) using D300e digital dispenser (Tecan). […] 3 μL 2× enzyme solution was added to wells. […] After 1 hour reaction, 5 μL ADP-Glo reagent (Promga V9101) was added and incubated for 40 minutes. 10 μL Kinase Detection reagent was added and incubated for 30 minutes. Luminescence was measured on a microplate reader (PHERAstar FSX, BMG labtech). The IC50s are calculated based on inhibition of enzyme activity in the presence of increasing concentrations of compounds.
Human His-TEV-DGK-zeta-pFastBac1 and human baculovirus samples was generated using the Bac-to-Bac baculovirus expression system (Invitrogen) according to the manufacturer's protocol. The DNA used for expression of DGK-zeta, have SEQ ID Nos: 1. Baculovirus amplification was achieved using infected SF9 cells at 1:2000 virus/cells ratios, and grown for 96 hours at 27° C. post-transfected.
The expression scaled up for each protein was carried out in the […] from CORNING. 4 L of 3×10^6 cells/mL Sf9 cells (Expression System, Invitrogen) grown in SF900™ II SFM insect medium (Expression System) was infected with virus stock at 1:200 virus/cells ratio, and grown for 48 hours at 27° C. post-transfection. The infected cell culture was harvested by centrifugation at 6000 rpm for 15 min 4° C. in a SORVALL LYNX6000 centrifuge. The cell pellets were stored at −80° C.
Full length human DGKζ produced as described above, was purified from Sf9 baculovirus-infected insect cell paste. The cells were lysed using sonication method, and the lysates were clarified by centrifugation.

[2] = target: DGKα (Homo sapiens (Human), UniProt P23743); assay: Biochemical DGK IC50 assay (ADP-Glo, lipid micelle substrate), DGKα; conditions: full length DGKα […], ATP 140 μM, DAG 80 μM; further: full length DGKα 7.5 nM
Sequence of DGKα (P23743 whole entry): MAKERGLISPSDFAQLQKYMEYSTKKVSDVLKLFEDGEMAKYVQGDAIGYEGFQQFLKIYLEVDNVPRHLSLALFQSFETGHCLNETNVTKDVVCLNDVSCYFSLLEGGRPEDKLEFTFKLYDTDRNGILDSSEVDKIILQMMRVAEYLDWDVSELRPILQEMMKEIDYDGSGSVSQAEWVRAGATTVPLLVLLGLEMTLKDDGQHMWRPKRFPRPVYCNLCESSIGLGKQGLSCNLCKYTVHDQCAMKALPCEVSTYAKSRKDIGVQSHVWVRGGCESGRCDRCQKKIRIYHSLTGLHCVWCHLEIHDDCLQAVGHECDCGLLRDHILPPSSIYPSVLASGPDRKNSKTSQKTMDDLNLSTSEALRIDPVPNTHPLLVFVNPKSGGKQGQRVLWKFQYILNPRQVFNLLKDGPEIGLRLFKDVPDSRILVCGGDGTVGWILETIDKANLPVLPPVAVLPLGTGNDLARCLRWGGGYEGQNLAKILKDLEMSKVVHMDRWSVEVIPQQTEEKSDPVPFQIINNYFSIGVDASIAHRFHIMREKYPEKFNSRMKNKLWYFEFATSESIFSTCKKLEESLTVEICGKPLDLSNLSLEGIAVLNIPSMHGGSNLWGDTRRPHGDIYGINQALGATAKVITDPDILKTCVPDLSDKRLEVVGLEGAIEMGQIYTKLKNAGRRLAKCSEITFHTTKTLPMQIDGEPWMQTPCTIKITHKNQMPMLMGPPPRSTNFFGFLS
Method: as §1, §2

Sequence of DGKζ (Q13574 other isoform, or with tags, fused parts or gaps): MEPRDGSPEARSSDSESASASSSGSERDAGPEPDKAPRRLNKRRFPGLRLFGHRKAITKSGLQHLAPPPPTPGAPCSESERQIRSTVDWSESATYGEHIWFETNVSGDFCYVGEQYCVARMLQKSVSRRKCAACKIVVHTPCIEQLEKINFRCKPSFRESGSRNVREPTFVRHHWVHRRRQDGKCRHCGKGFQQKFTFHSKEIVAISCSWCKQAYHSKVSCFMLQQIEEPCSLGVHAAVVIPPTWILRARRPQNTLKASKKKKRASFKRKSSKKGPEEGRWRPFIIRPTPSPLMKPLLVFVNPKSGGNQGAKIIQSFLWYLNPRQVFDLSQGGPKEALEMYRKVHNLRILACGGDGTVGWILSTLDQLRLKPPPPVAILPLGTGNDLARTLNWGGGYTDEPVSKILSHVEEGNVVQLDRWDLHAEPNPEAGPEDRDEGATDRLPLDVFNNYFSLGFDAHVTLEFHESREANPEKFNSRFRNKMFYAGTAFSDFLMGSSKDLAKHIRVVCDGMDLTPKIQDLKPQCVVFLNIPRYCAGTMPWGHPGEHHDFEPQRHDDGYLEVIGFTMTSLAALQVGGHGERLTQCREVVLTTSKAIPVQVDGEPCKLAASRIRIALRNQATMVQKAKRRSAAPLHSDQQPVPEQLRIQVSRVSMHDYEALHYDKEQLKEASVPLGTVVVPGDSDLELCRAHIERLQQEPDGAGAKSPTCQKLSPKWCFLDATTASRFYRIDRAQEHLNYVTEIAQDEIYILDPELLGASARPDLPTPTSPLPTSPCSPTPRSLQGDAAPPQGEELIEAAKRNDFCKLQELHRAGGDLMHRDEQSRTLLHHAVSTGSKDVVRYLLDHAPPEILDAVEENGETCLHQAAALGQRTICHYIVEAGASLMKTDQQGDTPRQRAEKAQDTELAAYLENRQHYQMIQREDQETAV

Structure (SMILES) | IC50 [1] [nM] | IC50 [2] [nM]
CC[C@H]1CN(C(C)c2ccc(C3CC3)nc2)[C@H](CC)CN1c1c(F)c(=O)n(C)c2cn(CC#N)nc12 (single isomer, unassigned) [Compound A48b] | 108 | 788
CC[C@H]1CN(C(C)c2ccc(OC(C)C)cn2)[C@H](CC)CN1c1cc(=O)n(C)c2cn(CC#N)nc12 (single isomer, unassigned) [Compound A51b] | 1800 | 337
CC[C@H]1CN(C(C)c2ccc(C)c(C)n2)[C@H](CC)CN1c1cc(=O)n(C)c2cn(CC#N)nc12 (single isomer, unassigned) [Compound A54a] | 33 | 76
CC[C@H]1CN(C(C)c2ccc(C)c(C)n2)[C@H](CC)CN1c1cc(=O)n(C)c2cn(CC#N)nc12 (single isomer, unassigned) [Compound A54b] | 1890 | 1910
CC[C@H]1CN(C(C)c2ccc3c(c2)OCO3)[C@H](CC)CN1c1cc(=O)n(C)c2cn(CC#N)nc12 (single isomer, unassigned) [Compound A68a] | 49 | 97
CC[C@H]1CN(C(C)c2ccc3c(c2)OCO3)[C@H](CC)CN1c1cc(=O)n(C)c2cn(CC#N)nc12 (single isomer, unassigned) [Compound A68b] | 2550 | 1390
CC[C@H]1CN(C(C)c2ccc3c(n2)OCO3)[C@H](CC)CN1c1cc(=O)n(C)c2cn(CC#N)nc12 (single isomer, unassigned) [Compound A75a] | 139 | 74
CC[C@H]1CN(C(C)c2ccc3c(n2)OCO3)[C@H](CC)CN1c1cc(=O)n(C)c2cn(CC#N)nc12 (single isomer, unassigned) [Compound A75b] | 5050 | 1110
CC[C@H]1CN(C(C)c2ccc3ccnn3c2)[C@H](CC)CN1c1cc(=O)n(C)c2cn(CC#N)nc12 (single isomer, unassigned) [Compound A77a] | 54 | 178
CC[C@H]1CN(C(C)c2ccc3ccnn3c2)[C@H](CC)CN1c1cc(=O)n(C)c2cn(CC#N)nc12 (single isomer, unassigned) [Compound A77b] | 859 | 744
CC[C@H]1CN(C(C)c2ccn3ccnc3c2)[C@H](CC)CN1c1cc(=O)n(C)c2cn(CC#N)nc12 (single isomer, unassigned) [Compound A80a] | 939 | 140
CC[C@H]1CN(C(C)c2ccn3ccnc3c2)[C@H](CC)CN1c1cc(=O)n(C)c2cn(CC#N)nc12 (single isomer, unassigned) [Compound A80b] | 6900 | 3040
CC[C@H]1CN(C(C)c2ccc3nccn3c2)[C@H](CC)CN1c1cc(=O)n(C)c2cn(CC#N)nc12 (single isomer, unassigned) [Compound A82a] | 486 | 109
CC[C@H]1CN(C(C)c2ccc3nccn3c2)[C@H](CC)CN1c1cc(=O)n(C)c2cn(CC#N)nc12 (single isomer, unassigned) [Compound A82b] | 8520 | 3050
CC[C@H]1CN(C(C)c2ccc3cncn3c2)[C@H](CC)CN1c1cc(=O)n(C)c2cn(CC#N)nc12 (single isomer, unassigned) [Compound A83a] | 8790 | 648
CC[C@H]1CN(C(C)c2ccc3cncn3c2)[C@H](CC)CN1c1cc(=O)n(C)c2cn(CC#N)nc12 (single isomer, unassigned) [Compound A83b] | 1800 | 90
CC[C@H]1CN(C(C)c2ccc3ncoc3c2)[C@H](CC)CN1c1cc(=O)n(C)c2cn(CC#N)nc12 (single isomer, unassigned) [Compound A84a] | 43 | 68

Structure (SMILES) | IC50 [1] [nM] | IC50 [2] [nM]
CC[C@H]1CN(C(C)c2ccc3ncoc3c2)[C@H](CC)CN1c1cc(=O)n(C)c2cn(CC#N)nc12 (single isomer, unassigned) [Compound A84b] | 3180 | 1170
CC[C@@H]1CN(c2cc(=O)n(C)c3cn(CC#N)nc23)[C@@H](C)CN1[C@@H](C)c1ccc2ncoc2c1 (single isomer, unassigned) [Compound A85a] | 78 | 170
CC[C@@H]1CN(c2cc(=O)n(C)c3cn(CC#N)nc23)[C@@H](C)CN1[C@H](C)c1ccc2ncoc2c1 (single isomer, unassigned) [Compound A85b] | 3500 | 2040
CC[C@H]1CN(C(C)c2ccc(NC(C)=O)c(O)c2F)[C@H](CC)CN1c1cc(=O)n(C)c2cn(CC#N)nc12 (single isomer, unassigned) [Compound A87a] | 2820 | 2010
CC[C@H]1CN(C(C)c2ccc(NC(C)=O)c(O)c2F)[C@H](CC)CN1c1cc(=O)n(C)c2cn(CC#N)nc12 (single isomer, unassigned) [Compound A87b] | > 10000 | 35200
CC[C@@H]1CN(c2cc(=O)n(C)c3cn(CC#N)nc23)[C@@H](C)CN1C(C)c1ccc2ncsc2c1 (single isomer, unassigned) [Compound A92a] | 9.1 | 108
CC[C@@H]1CN(c2cc(=O)n(C)c3cn(CC#N)nc23)[C@@H](C)CN1C(C)c1ccc2ncsc2c1 (single isomer, unassigned) [Compound A92b] | 265 | 1020
CC[C@H]1CN(C(C)c2cnc3ncsc3c2)[C@H](CC)CN1c1cc(=O)n(C)c2cn(CC#N)nc12 (single isomer, unassigned) [Compound A98a] | 108 | 5510
CC[C@H]1CN(C(C)c2cnc3ncsc3c2)[C@H](CC)CN1c1cc(=O)n(C)c2cn(CC#N)nc12 (single isomer, unassigned) [Compound A98b] | 2870 | 9470
CC[C@H]1CN(C(C)c2ccc3ncsc3n2)[C@H](CC)CN1c1cc(=O)n(C)c2cn(CC#N)nc12 (single isomer, unassigned) [Compound A99a] | 3520 | 1740
CC[C@H]1CN(C(C)c2ccc3ncsc3n2)[C@H](CC)CN1c1cc(=O)n(C)c2cn(CC#N)nc12 (single isomer, unassigned) [Compound A99b] | 8.6 | 24
CC[C@@H]1CN(c2cc(=O)n(C)c3cn(CC#N)nc23)[C@@H](C)CN1C(C)c1ccc2ncsc2n1 (single isomer, unassigned) [Compound A100a] | 46 | 85
CC[C@@H]1CN(c2cc(=O)n(C)c3cn(CC#N)nc23)[C@@H](C)CN1C(C)c1ccc2ncsc2n1 (single isomer, unassigned) [Compound A100b] | 2610 | 2890
CC[C@H]1CN(C(C)c2cc(F)c3ncsc3c2)[C@H](CC)CN1c1cc(=O)n(C)c2cn(CC#N)nc12 (single isomer, unassigned) [Compound A101a] | 19 | 2610
CC[C@H]1CN(C(C)c2cc(F)c3ncsc3c2)[C@H](CC)CN1c1cc(=O)n(C)c2cn(CC#N)nc12 (single isomer, unassigned) [Compound A101b] | 1240 | 17700
CC[C@H]1CN(C(C)c2cc3scnc3cc2F)[C@H](CC)CN1c1cc(=O)n(C)c2cn(CC#N)nc12 (single isomer, unassigned) [Compound A103a] | 14 | 92

— US20250346597A1, “CONDENSED HETEROCYCLIC COMPOUNDS AS INHIBITOR OF DIACYLGLYCEROL KINASES” (BEONE MEDICINES I GMBH, priority 2023, published 2025)
